Results on eleven compounds are retold here after patent US5409817A, “Use of trans-sialidase and sialyltransferase for synthesis of sialylα2→3βgalactosides” (priority 1993, dated 1995).

Read-outs that look alike come from different tables or passages of the source. Some results are limits rather than exact numbers.

One assay deals with T. crusi trans-sialidase (Trypanosoma cruzi, UniProt P23253). The assay can be described thus: Suitability as acceptor for the trans-sialidase. The class given is biochemical. An excerpt:
The third principal enzyme used here is the trans-sialidase of Trypanosoma crusi (T. crusi) whose isolation and reactivity was reported in Vendekerckhove et al., Glycobiology, 6:541 (1992). This enzyme is often referred to as the trans-sialidase, and has a broad specificity for transferring sialic acid from a wide variety of NeuAcα2→3βGal-containing donor oligosaccharides to the non-reducing terminus (end) of a narrower range oligosaccharide acceptors whose nonreducing terminal saccharide is a β-linked Gal. A sialic acid is not transferred from an α(2,6)-linked Gal.
Thus, using the α(2,3)sialyltransferase acceptors of Scheme 2 (Compounds 2a and 2b) as exemplary and keeping in mind the before-discussed structural preferences and requirements of the T. crusi trans-sialidase for an acceptor substrate, it is seen that Compound 2a that has a non-reducing terminal Galβ1→3GlcNAc linkage, whereas Compound 2b contains a Galβ1→3GalNAc linkage, neither of which is preferred for an acceptor for the trans-sialidase, and both are present in a catalytic amount.

The subject of a further assay is α(2,3)sialyltransferases. The assay can be described thus: Suitability as substrate of α(2,3)sialyltransferases. The class given is biochemical. Particulars: all known α(2,3)sialyltransferases. An excerpt:
First, the corresponding galactoside Compound 3 [Jansson et al., J. Org. […] Second, after protection of hydroxy and carboxylate groups and selective cleavage of 2-(trimethylsilyl)ethyl glycoside, the sialoside Compound 4 is readily converted to a disaccharide glycosyl donor that can be used in the block chemical synthesis of ganglioside GM4 and more complex sialosides [(a) Suguimoto et al., Tetrahedron Lett., 31:385 (1990); (b) Kameyama et al., Carbohydr. Res., 209 (1991)] as reported by others.

For assay [1], the target named is T1, α-(2,3)Sialyltransferase EC 2.4.99.4 (Sus scrofa, UniProt Q02745).
T1 sequence (Q02745 1-343): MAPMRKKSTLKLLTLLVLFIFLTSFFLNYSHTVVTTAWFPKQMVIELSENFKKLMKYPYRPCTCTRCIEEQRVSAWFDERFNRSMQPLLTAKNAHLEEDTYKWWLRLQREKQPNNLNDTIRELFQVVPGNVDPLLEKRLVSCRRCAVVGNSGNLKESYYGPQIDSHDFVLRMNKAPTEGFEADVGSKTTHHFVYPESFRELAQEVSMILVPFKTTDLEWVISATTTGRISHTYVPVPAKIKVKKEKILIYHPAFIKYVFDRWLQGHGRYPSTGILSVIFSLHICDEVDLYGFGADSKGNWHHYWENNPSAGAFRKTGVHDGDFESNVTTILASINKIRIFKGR
Particulars: acceptor for EC 2.4.99.4, cited from earlier work.

The target in assay [2] is T2, α-(2,3)Sialyltransferase EC 2.4.99.6 (Rattus norvegicus, UniProt Q02734).
T2 sequence (Q02734 1-374): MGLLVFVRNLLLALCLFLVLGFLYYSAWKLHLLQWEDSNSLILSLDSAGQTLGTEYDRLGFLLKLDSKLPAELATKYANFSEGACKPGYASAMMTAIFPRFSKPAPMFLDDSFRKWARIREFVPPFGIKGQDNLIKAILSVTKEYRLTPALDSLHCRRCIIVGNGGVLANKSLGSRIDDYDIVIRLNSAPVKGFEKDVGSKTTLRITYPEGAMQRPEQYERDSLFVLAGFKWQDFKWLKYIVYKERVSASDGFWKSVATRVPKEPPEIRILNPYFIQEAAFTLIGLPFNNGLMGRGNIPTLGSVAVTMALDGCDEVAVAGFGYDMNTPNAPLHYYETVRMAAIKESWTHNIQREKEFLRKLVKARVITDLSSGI
As to conditions: acceptor for EC 2.4.99.6, cited from earlier work.

Where [3] appears, read: value approximated from the data in Rearick et al.

T. crusi trans-sialidase, sequence (P23253 whole entry): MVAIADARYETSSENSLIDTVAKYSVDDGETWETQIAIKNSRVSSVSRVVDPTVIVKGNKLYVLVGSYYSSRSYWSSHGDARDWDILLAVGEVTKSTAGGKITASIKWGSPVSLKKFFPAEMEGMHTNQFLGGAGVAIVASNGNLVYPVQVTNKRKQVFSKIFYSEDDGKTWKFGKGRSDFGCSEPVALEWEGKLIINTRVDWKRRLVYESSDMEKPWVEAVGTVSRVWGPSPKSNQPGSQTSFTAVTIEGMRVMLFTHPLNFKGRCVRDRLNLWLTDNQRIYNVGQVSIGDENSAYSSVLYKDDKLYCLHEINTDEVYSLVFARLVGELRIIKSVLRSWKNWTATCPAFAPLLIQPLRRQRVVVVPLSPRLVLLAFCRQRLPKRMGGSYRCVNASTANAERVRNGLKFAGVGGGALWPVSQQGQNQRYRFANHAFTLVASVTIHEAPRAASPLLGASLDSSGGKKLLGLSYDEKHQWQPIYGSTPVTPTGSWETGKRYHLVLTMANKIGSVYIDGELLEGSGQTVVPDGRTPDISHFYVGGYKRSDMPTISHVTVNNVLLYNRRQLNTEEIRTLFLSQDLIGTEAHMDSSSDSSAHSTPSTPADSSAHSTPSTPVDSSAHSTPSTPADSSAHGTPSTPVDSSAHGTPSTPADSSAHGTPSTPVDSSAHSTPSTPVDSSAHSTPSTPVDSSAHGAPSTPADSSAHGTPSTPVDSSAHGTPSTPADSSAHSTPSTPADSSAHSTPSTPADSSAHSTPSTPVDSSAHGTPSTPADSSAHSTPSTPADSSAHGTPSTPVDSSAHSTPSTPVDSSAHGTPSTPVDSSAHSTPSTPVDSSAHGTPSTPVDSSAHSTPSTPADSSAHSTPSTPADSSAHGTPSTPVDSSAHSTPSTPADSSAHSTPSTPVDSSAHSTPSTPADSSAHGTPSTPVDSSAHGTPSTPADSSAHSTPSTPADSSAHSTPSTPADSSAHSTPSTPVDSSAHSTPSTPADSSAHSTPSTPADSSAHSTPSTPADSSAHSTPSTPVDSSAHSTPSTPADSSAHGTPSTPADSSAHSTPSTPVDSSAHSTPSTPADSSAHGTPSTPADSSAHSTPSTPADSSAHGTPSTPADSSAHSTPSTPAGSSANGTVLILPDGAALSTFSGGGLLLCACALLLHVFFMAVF

For `CC(=O)N[C@H]1[C@H](O[C@H]2[C@@H](O)[C@@H](CO)O[C@@H](O[C@H]3[C@H](O)[C@@H](O)C(O)O[C@@H]3CO)[C@@H]2O)O[C@H](CO)[C@@H](O)[C@@H]1O[C@@H]1O[C@H](CO)[C@H](O)[C@H](O)[C@H]1O` (some centres unmarked) [Compound 2a], the “acceptor quality for the trans-sialidase” value at T. crusi trans-sialidase is reported as “relatively poor acceptors”.

In the case of `CC(=O)N[C@H]1[C@H](OCC[Si](C)(C)C)O[C@H](CO)[C@H](O)[C@@H]1O[C@@H]1O[C@H](CO)[C@H](O)[C@H](O)[C@H]1O` [Compound 2b], the “acceptor quality for the trans-sialidase” value on T. crusi trans-sialidase is listed as “relatively poor acceptors”.

For the compound `C[Si](C)(C)CCO[C@@H]1O[C@H](CO)[C@H](O)[C@H](O)[C@H]1O` [Compound 3], the “substrate quality for α(2,3)sialyltransferases” value with α(2,3)sialyltransferases is on record as “poor substrate”.

Consider `CC(=O)N[C@H]1C(O)O[C@H](CO)[C@H](O)[C@@H]1O[C@@H]1O[C@H](CO)[C@H](O)[C@H](O)[C@H]1O` (some centres unmarked) [Galβ1→3GalNAc], for which the “Km /Vmax” value in assay [1] was 0.024 mM-units mg; in assay [2] (value approximated from the data in Weinstein et al.), above 10 mM-units mg.

On to `CC(=O)N[C@H]1C(O)O[C@H](CO)[C@@H](O)[C@@H]1O[C@@H]1O[C@H](CO)[C@H](O)[C@H](O)[C@H]1O` (some centres unmarked) [Galβ1→3GlcNAc], for which, in assay [1], the “Km /Vmax” value was 15 mM-units mg. In addition, in assay [2], the Km (usually the substrate concentration at which the rate is half of its maximum) is 640 µM and the “Km /Vmax” value was 0.55 mM-units mg.

`CC(=O)N[C@H]1C(O)O[C@H](CO)[C@@H](O[C@@H]2O[C@H](CO)[C@H](O)[C@H](O)[C@H]2O)[C@@H]1O` (some centres unmarked) [Galβ1→4GlcNAc]: the “Km /Vmax” value in assay [1] is recorded as 382 mM-units mg. Also, in assay [2], the Km is 2700 µM and the “Km /Vmax” value is reported as 3.6 mM-units mg.

With `OC[C@H]1O[C@@H](O[C@H]2[C@H](O)[C@@H](O)C(O)O[C@@H]2CO)[C@H](O)[C@@H](O)[C@H]1O` (some centres unmarked) [Galβ1→4Glc], the “Km /Vmax” value is 290 mM-units mg in assay [1] and 10 mM-units mg in assay [2].

As for `CC(=O)N[C@H]1C(O)O[C@H](CO[C@@H]2O[C@H](CO)[C@H](O)[C@H](O)[C@H]2O)[C@@H](O)[C@@H]1O` (some centres unmarked) [Galβ1→6GlcNAc], the “Km /Vmax” value in assay [1] was 121 mM-units mg.

As to `CO[C@@H]1O[C@H](CO)[C@H](O)[C@H](O)[C@H]1O` [Galβ1→OCH3], the “Km /Vmax” value in assay [1] (setting [3]) is recorded as above 100 mM-units mg.

With `CC(=O)N[C@H]1[C@H](O[C@H]2[C@@H](O)[C@@H](CO)O[C@@H](O[C@H]3[C@H](O)[C@@H](O)C(O)O[C@@H]3CO)[C@@H]2O)O[C@H](CO)[C@@H](O[C@@H]2O[C@H](CO)[C@H](O)[C@H](O)[C@H]2O)[C@@H]1O` (some centres unmarked) [lacto-N-neo-tetraose, Galβ1→4GlcNAcβ1→3Galβ1→4Glc], the “Km /Vmax” value in assay [1] (setting [3]) was above 100 mM-units mg. Besides, in assay [2], the Km is 4220 µM, the “Km /Vmax” value is listed as 4.3 mM-units mg and the Vmax is 0.98 units/mg.

With `CC(=O)N[C@H]1[C@H](O[C@H]2[C@@H](O)[C@@H](CO)O[C@@H](O[C@H]3[C@H](O)[C@@H](O)C(O)O[C@@H]3CO)[C@@H]2O)O[C@H](CO)[C@@H](O)[C@@H]1O[C@@H]1O[C@H](CO)[C@H](O)[C@H](O)[C@H]1O` (some centres unmarked) [lacto-N-tetraose, Galβ1→3GlcNAcβ1→3Galβ1→4Glc], in assay [1], the Km was 27000 µM and the “Km /Vmax” value was 7.5 mM-units mg. In addition, in assay [2], the Km is 90 µM and the “Km /Vmax” value is 0.09 mM-units mg.
